According to patent publication US20220356174A1, “PYRIDIN-2-ONE COMPOUNDS USEFUL AS SMARCA2 ANTAGONISTS” (Epizyme, Inc., priority 2018, published 2022):
Read-outs that look alike come from different tables or passages of the source.

Legend:
FL-SMARCA4 = FL-SMARCA4 (Homo sapiens, UniProt P51532); test: SMARCA4 ATPase activity assay (ADP-Glo, chicken mononucleosome substrate)
[1] = target: T1, FL-SMARCA2 (full-length human SMARCA2 isoform 1) (Homo sapiens, UniProt P51531); test: SMARCA2 ATPase activity assay (ADP-Glo, chicken mononucleosome substrate); format: biochemical; settings: ATP 250 uM
T1 construct: FLAG tag (YKDDDDK) (C); made in house; host or cells: Sf21 insect cells (baculovirus, pFastBacI)
T1 sequence (P51531 with tags, fused parts or gaps): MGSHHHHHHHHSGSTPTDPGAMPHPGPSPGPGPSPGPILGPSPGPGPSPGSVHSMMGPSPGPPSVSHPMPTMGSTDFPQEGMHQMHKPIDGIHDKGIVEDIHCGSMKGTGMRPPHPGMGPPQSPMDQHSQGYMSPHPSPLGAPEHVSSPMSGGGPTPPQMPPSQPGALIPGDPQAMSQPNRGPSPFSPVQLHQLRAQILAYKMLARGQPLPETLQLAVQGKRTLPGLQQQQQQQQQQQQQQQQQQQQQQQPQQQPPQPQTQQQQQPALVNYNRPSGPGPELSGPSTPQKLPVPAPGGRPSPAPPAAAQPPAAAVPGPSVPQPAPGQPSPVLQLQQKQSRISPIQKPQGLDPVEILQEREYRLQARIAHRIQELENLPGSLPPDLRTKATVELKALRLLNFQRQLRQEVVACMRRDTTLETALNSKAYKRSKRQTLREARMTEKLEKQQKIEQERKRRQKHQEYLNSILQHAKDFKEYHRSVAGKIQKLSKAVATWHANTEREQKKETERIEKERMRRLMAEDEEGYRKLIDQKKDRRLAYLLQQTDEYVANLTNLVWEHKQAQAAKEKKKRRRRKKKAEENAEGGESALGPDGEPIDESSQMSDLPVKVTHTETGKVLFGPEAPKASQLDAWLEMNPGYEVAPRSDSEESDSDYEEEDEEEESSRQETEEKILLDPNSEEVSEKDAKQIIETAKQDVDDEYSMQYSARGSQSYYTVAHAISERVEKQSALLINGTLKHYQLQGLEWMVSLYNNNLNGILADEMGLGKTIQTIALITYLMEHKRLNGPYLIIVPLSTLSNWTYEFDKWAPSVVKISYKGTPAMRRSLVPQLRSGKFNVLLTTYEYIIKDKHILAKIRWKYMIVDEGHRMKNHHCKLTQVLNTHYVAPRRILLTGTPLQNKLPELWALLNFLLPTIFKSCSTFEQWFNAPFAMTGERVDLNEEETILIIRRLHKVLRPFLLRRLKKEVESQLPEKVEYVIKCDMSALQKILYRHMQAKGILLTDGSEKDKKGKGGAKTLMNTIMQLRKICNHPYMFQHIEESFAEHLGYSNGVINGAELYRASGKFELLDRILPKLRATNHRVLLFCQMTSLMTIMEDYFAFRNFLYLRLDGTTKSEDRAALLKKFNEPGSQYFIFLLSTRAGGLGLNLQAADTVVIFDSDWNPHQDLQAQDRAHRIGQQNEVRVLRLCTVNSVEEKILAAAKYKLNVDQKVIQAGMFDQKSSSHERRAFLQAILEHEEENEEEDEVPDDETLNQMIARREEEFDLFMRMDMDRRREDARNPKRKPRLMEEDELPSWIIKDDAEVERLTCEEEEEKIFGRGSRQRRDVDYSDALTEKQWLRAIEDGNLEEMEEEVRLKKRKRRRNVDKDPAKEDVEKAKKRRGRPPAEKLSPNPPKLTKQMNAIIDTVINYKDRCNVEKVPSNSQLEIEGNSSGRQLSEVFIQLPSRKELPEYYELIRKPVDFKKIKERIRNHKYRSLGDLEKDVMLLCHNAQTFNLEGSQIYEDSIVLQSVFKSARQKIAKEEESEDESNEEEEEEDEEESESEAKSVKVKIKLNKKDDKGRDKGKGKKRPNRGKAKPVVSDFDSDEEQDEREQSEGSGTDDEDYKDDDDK
Source text: Molecular Biology: Full-length human SMARCA2 isoform 1 (P51531) transcript clone was amplified from a cDNA library incorporating an N-terminal HIS tag ([…]) fused directly to Ser2 of SMARCA2 and a C-FLAG tag (YKDDDDK) fused directly to Glu1590 of SMARCA2. The amplified gene was subcloned into pFastBacI (Life Technologies).
Protein Expression: Recombinant baculovirus were generated and protein over-expression was accomplished by infecting exponentially growing Sf21 insect cell culture at 1.24×10^6 cell/ml with an MOI of 0.1. Infections were carried out for 76 hours, harvested by centrifugation, and stored at −80° C. for purification.
Expressed full-length SMARCA2 was purified from cell paste by FLAG affinity chromatography followed by anion exchange chromatography. The protein was dialyzed into a storage buffer containing 25 mM HEPES, 300 mM KCl, 10% Glycerol, pH 7.9, 1 mM TCEP and 0.01% Tween-20. The purity of the protein was measured as 74% using micro-capillary based gel electrophoresis.

[2] = FL-SMARCA4 IC50, Table 3a.2, SMARCA4 5 nM, ATP 250 uM, mononucleosome 10 nM
[3] = Table 3a.1, SMARCA2 5 nM, mononucleosome 10 nM
[4] = FL-SMARCA4 IC50, Table 3.2, ATPase assay, enzyme 5 nM, ATP 250 uM, chicken mononucleosome 10 nM, 30 min preincubation
[5] = Table 3.1, ATPase assay, enzyme 5 nM, chicken mononucleosome 10 nM, 30 min preincubation
[6] = FL-SMARCA4 IC>50, Table 3c.2, ATPase assay, enzyme 5 nM, ATP 250 uM, chicken mononucleosome 10 nM, 30 min preincubation
[7] = Table 3c.1, ATPase assay, enzyme 5 nM, chicken mononucleosome 10 nM, 30 min preincubation
[8] = Table 3d.1, ATPase assay, enzyme 5 nM, chicken mononucleosome 10 nM, 30 min preincubation, read-out: FL-SMARCA2 IC>50
[9] = FL-SMARCA4 IC50, Table 3b.2, SMARCA4 5 nM, ATP 250 uM, mononucleosome 10 nM
[10] = Table 3b.1, SMARCA2 5 nM, mononucleosome 10 nM

Chain of FL-SMARCA4 (P51532 whole entry, canonical isoform): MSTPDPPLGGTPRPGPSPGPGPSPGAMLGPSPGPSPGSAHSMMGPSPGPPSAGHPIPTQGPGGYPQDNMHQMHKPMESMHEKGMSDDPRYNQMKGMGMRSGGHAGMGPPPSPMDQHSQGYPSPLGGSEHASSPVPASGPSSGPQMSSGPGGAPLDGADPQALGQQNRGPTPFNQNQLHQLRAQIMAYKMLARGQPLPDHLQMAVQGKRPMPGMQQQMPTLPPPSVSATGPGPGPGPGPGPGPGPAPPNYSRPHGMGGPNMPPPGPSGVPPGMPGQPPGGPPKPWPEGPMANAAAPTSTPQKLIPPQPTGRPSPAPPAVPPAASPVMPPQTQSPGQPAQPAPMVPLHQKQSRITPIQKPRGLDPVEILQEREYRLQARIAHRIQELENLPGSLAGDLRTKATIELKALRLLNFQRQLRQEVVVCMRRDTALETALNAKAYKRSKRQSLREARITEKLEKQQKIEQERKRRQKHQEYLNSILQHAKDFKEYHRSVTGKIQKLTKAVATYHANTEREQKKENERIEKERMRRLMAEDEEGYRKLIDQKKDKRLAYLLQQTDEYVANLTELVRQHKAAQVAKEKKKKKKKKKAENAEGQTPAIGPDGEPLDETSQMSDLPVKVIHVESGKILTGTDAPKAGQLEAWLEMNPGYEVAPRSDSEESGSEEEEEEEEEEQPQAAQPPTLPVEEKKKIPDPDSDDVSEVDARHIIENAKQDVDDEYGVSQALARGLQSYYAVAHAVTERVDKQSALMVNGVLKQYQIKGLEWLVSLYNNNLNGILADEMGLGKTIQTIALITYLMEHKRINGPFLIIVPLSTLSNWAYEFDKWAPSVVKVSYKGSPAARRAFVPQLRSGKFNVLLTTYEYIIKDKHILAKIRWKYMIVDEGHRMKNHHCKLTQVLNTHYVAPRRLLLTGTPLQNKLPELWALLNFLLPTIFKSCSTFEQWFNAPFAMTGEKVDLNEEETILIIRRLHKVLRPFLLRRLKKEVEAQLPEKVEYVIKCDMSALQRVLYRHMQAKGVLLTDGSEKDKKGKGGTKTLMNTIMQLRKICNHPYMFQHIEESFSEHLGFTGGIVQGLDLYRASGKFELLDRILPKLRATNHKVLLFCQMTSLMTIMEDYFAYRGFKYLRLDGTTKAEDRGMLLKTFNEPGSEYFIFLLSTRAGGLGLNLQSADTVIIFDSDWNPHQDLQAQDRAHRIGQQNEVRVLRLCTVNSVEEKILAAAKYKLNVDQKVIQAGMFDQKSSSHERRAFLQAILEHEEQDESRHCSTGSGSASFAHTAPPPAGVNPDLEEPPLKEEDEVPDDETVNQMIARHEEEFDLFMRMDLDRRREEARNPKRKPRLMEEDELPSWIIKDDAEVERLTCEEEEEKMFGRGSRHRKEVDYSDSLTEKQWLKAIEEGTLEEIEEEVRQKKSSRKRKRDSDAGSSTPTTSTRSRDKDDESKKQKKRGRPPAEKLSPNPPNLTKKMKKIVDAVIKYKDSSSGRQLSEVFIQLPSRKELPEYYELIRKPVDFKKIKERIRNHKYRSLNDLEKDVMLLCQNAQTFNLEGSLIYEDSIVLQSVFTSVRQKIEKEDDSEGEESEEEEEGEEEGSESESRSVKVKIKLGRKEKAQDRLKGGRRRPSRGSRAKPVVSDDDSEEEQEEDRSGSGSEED

| IC50 (FL-SMARCA4; [4]) [µM] | IC50 [1, 5] [µM] | Compound | also measured |
| --- | --- | --- | --- |
| – | – | CCn1cc(NC(=O)[C@@H]2C[C@H](OC)CN2C)ccc1=O [Compound 3a] | IC50 (FL-SMARCA4; [2]): > 50 µM; IC50 [1, 3]: > 50 µM |
| 0.3 | 0.142 | N#Cc1sc(C(=O)Nc2ccc(=O)n(CCF)c2)cc1Cl [Compound 132] | – |
| > 50 | > 50 | CCn1cc(NC(=O)c2csc(C#N)n2)ccc1=O [Compound 199] | – |
| – | – | O=C(Nc1cc(F)c(=O)n(CC(F)F)c1)c1cc(C#Cc2cccc(CO)c2)c(Cl)s1 [Compound 138c] | IC50 (FL-SMARCA4; [6]): 0.0657 µM; IC50 [1, 7]: 0.0288 µM |
| > 50 | > 50 | CN(C)C(=O)c1ccc(C(=O)Nc2cc(F)c(=O)n(CCF)c2)s1 [Compound 306] | – |
| – | – | O=C(Nc1cc(F)c(=O)n(CC(F)F)c1)c1sc(Cl)c(Cl)c1O [Compound 49d] | IC50 (FL-SMARCA4; FL-SMARCA4 IC50): > 50 µM; IC50 [1, 8]: > 50 µM |
| > 50 | > 50 | O=C(Nc1cc(F)c(=O)n(CCF)c1)c1c[nH]c(=O)s1 [Compound 239] | – |
| – | – | O=C(Nc1cc(-c2cnco2)c(=O)n(CC(F)F)c1)c1sc(C(F)(F)F)cc1Cl [Compound 18c] | IC50 (FL-SMARCA4; [6]): > 50 µM; IC50 [1, 7]: > 50 µM |
| > 50 | 15.6 | CCn1cc(NC(=O)c2cc(Cl)c(Cl)s2)cc(Cc2cnn(C)c2)c1=O [Compound 186] | – |
| – | – | O=C(Nc1cc(F)c(=O)n(CC(F)F)c1)c1cc(C#Cc2ccnnc2)c(Cl)s1 [Compound 133c] | IC50 (FL-SMARCA4; [6]): 0.0607 µM; IC50 [1, 7]: 0.0139 µM |
| > 50 | > 50 | CCn1cc(NC(=O)c2cc(Cl)c(Cl)s2)cc(N(C)C)c1=O [Compound 149] | – |
| > 50 | > 50 | Cc1cc(NC(=O)c2cnn(-c3cccc(Cl)c3)c2C)c[nH]c1=O [Compound 4] | – |
| > 50 | 8.55 | CCCn1cc(NC(=O)c2cc(Cl)c(Cl)n2C)ccc1=O [Compound 68] | – |
| – | – | CCn1cc(NC(=O)c2cn3cc(Cl)c(F)cc3n2)ccc1=O [Compound 45a] | IC50 (FL-SMARCA4; [2]): > 50 µM; IC50 [1, 3]: > 50 µM |
| > 50 | 25.4 | Cc1cc(C(=O)Nc2cc(F)c(=O)n(CCF)c2)on1 [Compound 250] | – |
| 3.66 | 1.28 | CCn1cc(NC(=O)c2cc(C#Cc3cccnc3)c(Cl)s2)ccc1=O [Compound 287] | – |

| IC50 (FL-SMARCA4; [4]) [µM] | IC50 [1, 5] [µM] | Compound | also measured |
| --- | --- | --- | --- |
| – | – | O=C(Nc1cc(-c2c[nH]cn2)c(=O)n(CC(F)F)c1)c1sc(C(F)(F)F)cc1Cl [Compound 31c] | IC50 (FL-SMARCA4; [6]): > 50 µM; IC50 [1, 7]: > 50 µM |
| – | – | NS(=O)(=O)c1ccc(C(=O)Nc2cc(F)c(=O)n(CCF)c2)cc1Cl [Compound 23b] | IC50 (FL-SMARCA4; [9]): > 50 µM; IC50 [1, 10]: > 50 µM |
| – | – | CNCCCn1cc(NC(=O)c2cc(F)c(Cl)s2)cc(F)c1=O [Compound 53c] | IC50 (FL-SMARCA4; [6]): > 50 µM; IC50 [1, 7]: > 50 µM |
| 0.632 | 0.123 | N#Cc1cc(C(=O)Nc2cc(Cl)c(=O)n(CC(F)(F)F)c2)sc1Cl [Compound 208] | – |
| > 50 | > 50 | CCn1cc(NC(=O)c2cc(Cl)cs2)ccc1=O [Compound 44] | – |
| – | – | NC(=O)c1cc(C(=O)Nc2cc(F)c(=O)n(CC(F)F)c2)sc1C(F)(F)F [Compound 35d] | IC50 (FL-SMARCA4; FL-SMARCA4 IC50): > 50 µM; IC50 [1, 8]: > 50 µM |
| 0.864 | 0.224 | Cn1c(C(=O)Nc2cc(F)c(=O)n(CC(F)(F)F)c2)cc(Cl)c1C#N [Compound 160] | – |
| – | – | O=C(Nc1cc(F)c(=O)n(CCF)c1)N1CCn2ccnc2C1 [Compound 53a] | IC50 (FL-SMARCA4; [2]): > 50 µM; IC50 [1, 3]: > 50 µM |
| > 50 | > 50 | O=C(Nc1cc(F)c(=O)n(CCn2ccnc2)c1)c1cc(Cl)c(Cl)s1 [Compound 274] | – |
| > 50 | 17.9 | Cn1c(C(=O)Nc2cc(C#N)c(=O)n(CCF)c2)cnc1Cl [Compound 213] | – |
| – | – | N#Cc1cc(C(=O)Nc2cc(F)c(=O)n(CCF)c2)ccc1Cl [Compound 18b] | IC50 (FL-SMARCA4; [9]): 5.34 µM; IC50 [1, 10]: 0.917 µM |
| 16.6 | 14.1 | CCn1cc(NC(=O)c2cc(Cl)c(Cl)s2)cc(NCCOC)c1=O [Compound 113] | – |
| 0.631 | 0.148 | Cn1c(C(=O)Nc2cc(Cl)c(=O)n(CCF)c2)cc(Cl)c1Cl [Compound 134] | – |
| 0.723 | 0.223 | O=C(Nc1ccc(=O)n(CC(F)F)c1)c1cc(Cl)c(Cl)s1 [Compound 81] | – |
| – | – | CCn1cc(NC(=O)c2ccc(Cl)c(F)c2)ccc1=O [Compound 9b] | IC50 (FL-SMARCA4; [9]): > 50 µM; IC50 [1, 10]: 43.7 µM |
